Data on 22 compounds can be found in patent US20160257697A1, “THIOPHENE-SUBSTITUTED TETRACYCLIC COMPOUNDS AND METHODS OFUSE THEREOF FOR THE TREATMENT OF VIRAL DISEASES” (priority 2013, published 2016).

Holding throughout (assay): microbe, parasite or virus in culture
Common to all, as to format: cell-based, Hepatitis C virus (HCV)
Holding throughout (details): Replicon Assay A
For orientation: A replicon is a self-replicating genome or part of one, used to study replication in cells.

One test relates to HCV replicon 1AY93H. The gist of the method: (§1)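 Compound is added to replicon cells plated at 2000 cells/well (0.5% DMSO, 5% FBS). After 3 days the cells are washed and lysed, and HCV RNA and cyclophilin mRNA are quantified by multiplex RT-PCR against a standard curve of known replicon total RNA.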
For the next test, the system named is HCV replicon 1A. In a few lines:
as §1

Another test has as its system HCV replicon 2B. In a few lines: as §1
Setting [1] is: read-out: 1A Y93H IC50, HCV replicon 1A Y93H.
The mark [2] stands for this setting: read-out: 2B IC50, HCV replicon 2B.
The mark [3] stands for this setting: read-out: 1A Y93H IC50, replicon 1AY93H.
Where [4] appears, read: Hepatitis C virus, HCV replicon 1A.
The mark [5] stands for this setting: Hepatitis C virus, read-out: 1A Y93H IC50 (nM), replicon 1AY93H.
Setting [6] is: Hepatitis C virus, read-out: 2B IC50 (nM), replicon 2B.

Read-outs that look alike come from different tables or passages of the source.

Usually IC50 stands for the concentration needed to halve the response being measured. Consider `COC(=O)N[C@H](C(=O)N1CCC[C@H]1c1ncc(-c2ccc3c(c2)OC(c2cc(C)c(C)s2)n2c-3cc3cc(-c4cnc([C@@H]5C[C@H]6C[C@H]6N5C(=O)[C@@H](NC(=O)OC)C(C)C)[nH]4)ccc32)[nH]1)C(C)C` (single isomer, unassigned) [Compound 503], for which the 50% inhibitory concentration (IC50) with HCV replicon 1AY93H (setting [1]) is 1.76 nM; in the test with HCV replicon 1A (HCV replicon 1A), 0.0676 nM; with HCV replicon 2B (setting [2]) it was 7.51 nM.
Regarding `CCOC(C)[C@H](NC(=O)OC)C(=O)N1CCC[C@H]1c1ncc(-c2cc(F)c3c(c2)OC(c2cc(C)c(C)s2)n2c-3cc3cc(-c4cnc([C@@H]5CCCN5C(=O)[C@@H](NC(=O)OC)C(C)C)[nH]4)ccc32)[nH]1` (single isomer, unassigned) [Compound 80], the IC50 came out at 4.87 nM in the test on HCV replicon 1AY93H (setting [3]); 0.0027 nM with HCV replicon 1A (replicon 1A); 3.16 nM in the test with HCV replicon 2B (read-out: 2B IC50, replicon 2B).
Turning to `CCc1ccc(C2Oc3cc(-c4cnc([C@@H]5CCCN5C(=O)[C@@H](NC(=O)OC)C(C)C)[nH]4)cc(F)c3-c3cc4cc(-c5cnc([C@@H]6CCCN6C(=O)C(NC(=O)OC)C6C[C@@H](C)O[C@@H](C)C6)[nH]5)ccc4n32)s1` (single isomer, unassigned) [Compound 145], the IC50 in the test on HCV replicon 1AY93H (setting [3]) worked out at 5.22 nM; in the test on HCV replicon 1A (replicon 1A), 0.0022 nM; in the test with HCV replicon 2B (read-out: 2B IC50, replicon 2B), 1.62 nM.
With `COC(=O)N[C@H](C(=O)N1CCC[C@H]1c1nc(-c2ccc3c(c2)OC(c2ccc(Cl)s2)n2c-3cc3cc(-c4c[nH]c([C@@H]5CCCN5C(=O)[C@@H](NC(=O)OC)C5CCOCC5)n4)ccc32)c[nH]1)C1CCOCC1` (mixture of isomers) [Compound 727], the IC50 with HCV replicon 1AY93H (Hepatitis C virus, read-out: 1A Y93H IC50, HCV replicon 1A Y93H) stood at 0.056 nM; in the test on HCV replicon 1A (setting [4]), 0.024 nM; in the test on HCV replicon 2B (Hepatitis C virus, read-out: 2B IC50, HCV replicon 2B), 0.027 nM.
On to `COC(=O)N[C@H](C(=O)N1CCC[C@H]1c1ncc(-c2cc(F)c3c(c2)OC(c2cc4c(s2)CCCC4)n2c-3cc3cc(-c4cnc([C@@H]5CCCN5C(=O)[C@@H](NC(=O)OC)C(C)C)[nH]4)ccc32)[nH]1)C(C)C` (single isomer, unassigned) [Compound 55], for which the IC50 in the test on HCV replicon 1AY93H (setting [5]) came to 3.26 nM; in the test with HCV replicon 1A (Hepatitis C virus, replicon 1A), 0.0019 nM; in the test with HCV replicon 2B (setting [6]), 2.53 nM.
In the case of `COC(=O)NC(C(=O)N1CCC[C@H]1c1ncc(-c2ccc3c(c2)cc2n3C(c3ccc(C4CC4)s3)Oc3cc(-c4cnc([C@@H]5CCCN5C(=O)[C@@H](NC(=O)OC)C(C)C)[nH]4)cc(F)c3-2)[nH]1)C1C[C@H](C)O[C@@H](C)C1` (single isomer, unassigned) [Compound 404], the IC50 was 1.25 nM in the test on HCV replicon 1AY93H (setting [3]); 0.0022 nM with HCV replicon 1A (replicon 1A); 1.67 nM in the test with HCV replicon 2B (read-out: 2B IC50, replicon 2B).
Taken in the same sequence, the figures for `CCc1ccc(C2Oc3cc(-c4cnc([C@@H]5CCCN5C(=O)[C@@H](NC(=O)OC)C(C)C)[nH]4)cc(F)c3-c3cc4cc(-c5cnc([C@@H]6CCCN6C(=O)C(NC(=O)OC)C6CCOC(C)(C)C6)[nH]5)ccc4n32)s1` (single isomer, unassigned) [Compound 153] were 0.422 nM, 0.0021 nM and 0.51 nM.
For the compound `COC(=O)NC(C(=O)N1CCC[C@H]1c1ncc(-c2ccc3c(c2)cc2n3C(c3cc4c(s3)CCC4)Oc3cc(-c4cnc([C@@H]5CCCN5C(=O)[C@@H](NC(=O)OC)C(C)C)[nH]4)cc(F)c3-2)[nH]1)C1CCOC(C)(C)C1` (single isomer, unassigned) [Compound 405], the IC50 in the test with HCV replicon 1AY93H (setting [5]) was 0.0133 nM; with HCV replicon 1A (Hepatitis C virus, replicon 1A), 0.0023 nM; in the test on HCV replicon 2B (setting [6]), 0.0042 nM.
In the case of `COC(=O)NC(C(=O)N1CCC[C@H]1c1ncc(-c2ccc3c(c2)cc2n3C(c3ccc(C4CC4)s3)Oc3cc(-c4cnc([C@@H]5CCCN5C(=O)[C@@H](NC(=O)OC)C(C)C)[nH]4)cc(F)c3-2)[nH]1)C1CCO[C@@H](C)C1` (single isomer, unassigned) [Compound 355], the IC50 with HCV replicon 1AY93H (setting [3]) stood at 1.75 nM; with HCV replicon 1A (replicon 1A) it was 0.0019 nM; in the test on HCV replicon 2B (read-out: 2B IC50, replicon 2B), 2.8 nM.
`COC(=O)NC(C(=O)N1CCC[C@H]1c1ncc(-c2ccc3c(c2)cc2n3C(c3ccc(C4CC4)s3)Oc3cc(-c4cnc([C@@H]5CCCN5C(=O)[C@@H](NC(=O)OC)C(C)C)[nH]4)cc(F)c3-2)[nH]1)C1CC(C)(C)OC(C)(C)C1` (single isomer, unassigned) [Compound 420]: the IC50 was determined as 3.13 nM in the test on HCV replicon 1AY93H (setting [1]), 0.0029 nM in the test on HCV replicon 1A (setting [4]) and 6.03 nM in the test on HCV replicon 2B (setting [2]).
`COCC(C)(C)c1ccc(C2Oc3cc(-c4cnc([C@@H]5CCCN5C(=O)[C@@H](NC(=O)OC)C(C)C)[nH]4)cc(F)c3-c3cc4cc(-c5cnc([C@@H]6CCCN6C(=O)[C@@H](NC(=O)OC)C(C)C)[nH]5)ccc4n32)s1` (single isomer, unassigned) [Compound 400]: the half-inhibitory concentration (IC50) in the test with HCV replicon 1AY93H (setting [3]) was determined as 0.151 nM; in the test with HCV replicon 1A (replicon 1A) it was 0.0017 nM; in the test with HCV replicon 2B (read-out: 2B IC50, replicon 2B), 1.69 nM.
Turning to `COC(=O)NC(C(=O)N1CCC[C@H]1c1ncc(-c2ccc3c(c2)cc2n3C(c3ccc(C(C)C)s3)Oc3cc(-c4cnc([C@@H]5CCCN5C(=O)[C@@H](NC(=O)OC)C(C)C)[nH]4)cc(F)c3-2)[nH]1)C1C[C@@H](C)O[C@@H](C)C1` (single isomer, unassigned) [Compound 235], the IC50 in the test on HCV replicon 1AY93H (setting [3]) was 3.87 nM; with HCV replicon 1A (replicon 1A) it was 0.0013 nM; in the test on HCV replicon 2B (read-out: 2B IC50, replicon 2B), 10.2 nM.
As for `CC[C@@H]1CC(C(NC(=O)OC)C(=O)N2CCC[C@H]2c2ncc(-c3ccc4c(c3)cc3n4C(c4ccc(C5CC5)s4)Oc4cc(-c5cnc([C@@H]6CCCN6C(=O)[C@@H](NC(=O)OC)C(C)C)[nH]5)cc(F)c4-3)[nH]2)C[C@H](CC)O1` (single isomer, unassigned) [Compound 290], the IC50 with HCV replicon 1AY93H (setting [3]) was 0.19 nM; in the test on HCV replicon 1A (replicon 1A), 0.0011 nM; with HCV replicon 2B (read-out: 2B IC50, replicon 2B) it was 0.34 nM.
For the compound `COC(=O)NC(C(=O)N1CCC[C@H]1c1ncc(-c2cc(F)c3c(c2)OC(c2ccc(C4CCC4)s2)n2c-3cc3cc(-c4cnc([C@@H]5CCCN5C(=O)[C@@H](NC(=O)OC)C5CCOCC5)[nH]4)ccc32)[nH]1)C(C)(C)F` (single isomer, unassigned) [Compound 249], the concentration for half-maximal inhibition (IC50) in the test on HCV replicon 1AY93H (setting [3]) is 1.18 nM; in the test on HCV replicon 1A (replicon 1A) it was 0.0228 nM; in the test on HCV replicon 2B (read-out: 2B IC50, replicon 2B), 5.04 nM.
Consider `COC(=O)NC(C(=O)N1CCC[C@H]1c1ncc(-c2ccc3c(c2)cc2n3C(c3cc(C)c(C)s3)Oc3cc(-c4cnc([C@@H]5CCCN5C(=O)[C@@H](NC(=O)OC)C5CCOCC5)[nH]4)cc(F)c3-2)[nH]1)C(C)(C)F` (single isomer, unassigned) [Compound 131], for which the IC50 is 3.83 nM in the test with HCV replicon 1AY93H (setting [3]); 0.0078 nM with HCV replicon 1A (replicon 1A); 9.78 nM in the test with HCV replicon 2B (read-out: 2B IC50, replicon 2B).
Consider `CCc1ccc(C2Oc3cc(-c4cnc(C5CCCN5C(=O)C(NC(=O)OC)C5C[C@@H](C)O[C@@H](C)C5)[nH]4)ccc3-c3cc4c(F)c(-c5cnc([C@@H]6CCCN6C(=O)[C@@H](NC(=O)OC)C(C)C)[nH]5)ccc4n32)s1` (single isomer, unassigned) [Compound 358], for which the IC50 in the test with HCV replicon 1AY93H (setting [3]) is 2.62 nM; with HCV replicon 1A (Hepatitis C virus, replicon 1A), 0.0047 nM; in the test with HCV replicon 2B (read-out: 2B IC50, replicon 2B), 2.49 nM.
As to `COC(=O)NC(C(=O)N1CCC[C@H]1c1ncc(-c2ccc3c(c2)cc2n3C(c3ccc(C4CC4)s3)Oc3cc(-c4cnc([C@@H]5CCCN5C(=O)[C@@H](NC(=O)OC)C(C)C)[nH]4)cc(F)c3-2)[nH]1)C1CN(C(=O)OC)C1` (single isomer, unassigned) [Compound 227], the IC50 in the test on HCV replicon 1AY93H (setting [3]) was 0.15 nM; in the test on HCV replicon 1A (replicon 1A), 0.0019 nM; with HCV replicon 2B (read-out: 2B IC50, replicon 2B), 0.17 nM.
On to `COC(=O)N[C@H](C(=O)N1CCC[C@H]1c1ncc(-c2cc(F)c3c(c2)OC(c2ccc(CC(F)(F)F)s2)n2c-3cc3cc(-c4cnc([C@@H]5CCCN5C(=O)[C@@H](NC(=O)OC)C(C)C)[nH]4)ccc32)[nH]1)C(C)C` (single isomer, unassigned) [Compound 124], for which the IC50 in the test on HCV replicon 1AY93H (setting [5]) turned out to be 1.38 nM; in the test on HCV replicon 1A (Hepatitis C virus, replicon 1A), 0.0018 nM; in the test on HCV replicon 2B (setting [6]) it was 3.4 nM.
In the case of `COC(=O)NC(C(=O)N1CCC[C@H]1c1ncc(-c2ccc3c(c2)cc2n3C(c3ccc(C4CC4)s3)Oc3cc(-c4cnc([C@@H]5CCCN5C(=O)[C@@H](NC(=O)OC)C5CCOCC5)[nH]4)cc(F)c3-2)[nH]1)C(C)(C)F` (single isomer, unassigned) [Compound 175], the IC50 in the test on HCV replicon 1AY93H (setting [3]) came to 9.03 nM; with HCV replicon 1A (replicon 1A), 0.0077 nM; with HCV replicon 2B (read-out: 2B IC50, replicon 2B) it was 10.5 nM.
`COC(=O)N[C@H](C(=O)N1C[C@H](F)C[C@H]1c1nc(-c2ccc3c(c2)OC(c2ccc(C)s2)n2c-3cc3cc(-c4c[nH]c([C@@H]5C[C@H]6C[C@H]6N5C(=O)[C@@H](NC(=O)OC)C5CCOCC5)n4)ccc32)c[nH]1)C1CCOCC1` (single isomer, unassigned) [Compound 729]: the IC50 is 0.22 nM with HCV replicon 1AY93H (setting [1]), 0.028 nM in the test with HCV replicon 1A (HCV replicon 1A) and 0.034 nM in the test with HCV replicon 2B (setting [2]).
Regarding `COC(=O)NC(C(=O)N1CCC[C@H]1c1ncc(-c2ccc3c(c2)cc2n3C(c3ccc(F)s3)Oc3cc(-c4cnc([C@@H]5CCCN5C(=O)[C@@H](NC(=O)OC)C(C)C)[nH]4)cc(F)c3-2)[nH]1)C1C[C@@H](C)O[C@@H](C)C1` (single isomer, unassigned) [Compound 349], the IC50 turned out to be 0.266 nM in the test on HCV replicon 1AY93H (setting [3]); 0.0014 nM with HCV replicon 1A (replicon 1A); 0.39 nM in the test with HCV replicon 2B (read-out: 2B IC50, replicon 2B).
Take `COC(=O)NC(C(=O)N1CCC[C@H]1c1ncc(-c2ccc3c(c2)cc2n3C(c3ccc(C4CC4)s3)Oc3cc(-c4cnc([C@@H]5CCCN5C(=O)[C@@H](NC(=O)OC)C(C)C)[nH]4)cc(F)c3-2)[nH]1)C1C[C@@H](C)O[C@H](C)C1` (single isomer, unassigned) [Compound 191]: the IC50 in the test on HCV replicon 1AY93H (setting [3]) was 0.32 nM; in the test on HCV replicon 1A (replicon 1A), 0.0014 nM; in the test with HCV replicon 2B (read-out: 2B IC50, replicon 2B), 0.89 nM.
